How the values were obtained:
Assay in all cases: relative viability (nuclei count vs DMSO), 5 days (fraction); higher = more cells survive
BAY61-3606 + Tozasertib = compound: COC1=C(C=C(C=C1)C2=CC3=NC=CN3C(=N2)NC4=C(C=CC=N4)C(=O)N)OC [BAY61-3606] + Cc1cc(Nc2cc(N3CCN(C)CC3)nc(Sc3ccc(NC(=O)C4CC4)cc3)n2)n[nH]1 [Tozasertib] (partner 0.1 µM)
In short: (§1)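 Lung cancer cell lines were seeded in 1536-well plates and dosed by pin tool the next day, with either a single drug or a fixed anchor-drug dose combined with five library-drug doses (not always all listed) spaced in √10 steps. Five days later, one step fixed the cells and stained their nuclei (final 0.05% Triton X-100, 1% formaldehyde, 1 ug/ml Hoechst), and nuclei were counted on 4× images. Relative viability is the nuclei count in treated wells divided by the count in vehicle wells, and each value is the median of duplicate plates.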

Doxorubicin + Navitoclax = compound: COc1cccc2c1C(=O)c1c(O)c3c(c(O)c1C2=O)C[C@@](O)(C(=O)CO)C[C@@H]3O[C@H]1C[C@H](N)[C@H](O)[C@H](C)O1 [Doxorubicin] + CC1(C)CCC(c2ccc(Cl)cc2)=C(CN2CCN(c3ccc(C(=O)NS(=O)(=O)c4ccc(N[C@H](CCN5CCOCC5)CSc5ccccc5)c(S(=O)(=O)C(F)(F)F)c4)cc3)CC2)C1 [Navitoclax] (partner 0.5 µM)
In short: as §1

Doxorubicin + Linsitinib = compound: COc1cccc2c1C(=O)c1c(O)c3c(c(O)c1C2=O)C[C@@](O)(C(=O)CO)C[C@@H]3O[C@H]1C[C@H](N)[C@H](O)[C@H](C)O1 [Doxorubicin] + C[C@]1(O)C[C@@H](c2nc(-c3ccc4ccc(-c5ccccc5)nc4c3)c3c(N)nccn32)C1 [Linsitinib] (partner 1 µM)
In short: as §1

[1] = compound: COc1cccc2c1C(=O)c1c(O)c3c(c(O)c1C2=O)C[C@@](O)(C(=O)CO)C[C@@H]3O[C@H]1C[C@H](N)[C@H](O)[C@H](C)O1 [Doxorubicin] + CC(=O)c1c(C)c2cnc(Nc3ccc(N4CCNCC4)cn3)nc2n(C2CCCC2)c1=O [Palbociclib] (partner 0.5 µM)
In short: as §1

| Cell Line | relative viability (BAY61-3606 + Tozasertib; first compound 0.06325 µM) | relative viability (BAY61-3606 + Tozasertib; first compound 0.2 µM) | relative viability (BAY61-3606 + Tozasertib; first compound 0.6325 µM) | relative viability (BAY61-3606 + Tozasertib; first compound 2 µM) | relative viability (Doxorubicin + Navitoclax; first compound 0.001 µM) | relative viability (Doxorubicin + Navitoclax; first compound 0.003162 µM) | relative viability (Doxorubicin + Navitoclax; first compound 0.01 µM) | relative viability (Doxorubicin + Navitoclax; first compound 0.03162 µM) | relative viability (Doxorubicin + Navitoclax; first compound 0.1 µM) | relative viability (Doxorubicin + Linsitinib; first compound 0.001 µM) | relative viability (Doxorubicin + Linsitinib; first compound 0.003162 µM) | relative viability (Doxorubicin + Linsitinib; first compound 0.01 µM) | relative viability (Doxorubicin + Linsitinib; first compound 0.03162 µM) | relative viability (Doxorubicin + Linsitinib; first compound 0.1 µM) | relative viability ([1]; first compound 0.001 µM) | relative viability ([1]; first compound 0.003162 µM) | relative viability ([1]; first compound 0.01 µM) | relative viability ([1]; first compound 0.03162 µM) | relative viability ([1]; first compound 0.1 µM) | relative viability (BAY61-3606 + Tozasertib; first compound 0.02 µM) |
| --- | --- | --- | --- | --- | --- | --- | --- | --- | --- | --- | --- | --- | --- | --- | --- | --- | --- | --- | --- | --- |
| PC-3 [JPC-3] | 0.891 | 0.889 | 0.837 | 0.613 | 0.746 | 0.79 | 0.703 | 0.802 | 0.819 | 1.01 | 0.992 | 0.94 | 0.907 | 0.901 | 0.526 | 0.585 | 0.544 | 0.518 | 0.522 |  |
| HCC-15 | 0.194 | 0.222 | 0.2 | 0.149 | 0.707 | 0.716 | 0.705 | 0.665 | 0.634 | 0.878 | 0.842 | 0.927 | 0.795 | 0.725 | 0.743 | 0.733 | 0.522 | 0.681 | 0.488 | 0.29 |
| LCLC-97TM1 | 0.184 | 0.233 | 0.147 | 0.0986 | 0.284 | 0.411 | 0.524 | 0.398 | 0.331 | 0.205 | 0.185 | 0.177 | 0.151 | 0.159 | 0.229 | 0.205 | 0.222 | 0.199 | 0.238 | 0.17 |
| NCI-H647 | 0.176 | 0.167 | 0.258 | 0.131 | 1.17 | 1.4 | 0.992 | 0.65 | 0.517 | 0.977 | 1.17 | 0.952 | 0.441 | 0.435 | 0.403 | 0.492 | 0.412 | 0.15 | 0.239 | 0.339 |
| EPLC-272H | 0.247 | 0.362 | 0.242 | 0.157 | 1.11 | 1.37 | 0.971 | 1.11 | 1.05 | 0.936 | 1.45 | 1.4 | 1.18 | 1.13 | 0.279 | 0.28 | 0.301 | 0.328 | 0.29 | 0.262 |
